Laboratory results published in US12048783B2, “2,4-disubstituted pyridines as malodor counteracting ingredients” (FIRMENICH SA, priority 2017, dated 2024).

Target: T1, OR4S2 (Homo sapiens, UniProt Q8NH73)
T1 construct: expressed in transfected cells
T1 sequence (Q8NH73 1-311): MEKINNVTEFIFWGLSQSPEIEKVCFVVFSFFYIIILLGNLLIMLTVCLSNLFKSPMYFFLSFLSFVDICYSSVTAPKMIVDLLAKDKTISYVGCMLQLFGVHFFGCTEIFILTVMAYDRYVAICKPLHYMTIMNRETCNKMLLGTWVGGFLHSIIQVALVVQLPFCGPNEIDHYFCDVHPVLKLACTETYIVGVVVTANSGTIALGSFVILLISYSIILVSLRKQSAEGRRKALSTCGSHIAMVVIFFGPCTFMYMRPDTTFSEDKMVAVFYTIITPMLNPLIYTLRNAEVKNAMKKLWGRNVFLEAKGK
Assay: Inhibition of malodor compound induced olfactory receptor activity in stable cell lines
Assay type: cell-based
Conditions: inhibition of OR4S2 activity in presence of a single activating concentration of DMTS

Q: How did the EC50 turn out when CCCCCc1cc(C)ccn1 was run?
A: 90.3 µM
